Key:
Assay in all cases: relative viability (nuclei count vs DMSO), 5 days (fraction); higher = more cells survive
VE-821 + OSI-027 = compound: CS(=O)(=O)c1ccc(-c2cnc(N)c(C(=O)Nc3ccccc3)n2)cc1 [VE-821] + COc1cccc2cc(-c3nc([C@H]4CC[C@H](C(=O)O)CC4)n4ncnc(N)c34)[nH]c12 [OSI-027] (partner 0.5 µM)
How it was run: (§1)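 Relative viability equals treated-well nuclei counts divided by vehicle-well nuclei counts. Counts came from 4× images of lung cancer cell lines grown in 1536-well plates for 5 days after pin-tool dosing on the day after seeding. Dosing used one drug alone or a fixed anchor-drug dose plus five library-drug doses (not always all listed) in √10 steps, and values are medians of duplicate plates.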

VE-821 + Trametinib = compound: CS(=O)(=O)c1ccc(-c2cnc(N)c(C(=O)Nc3ccccc3)n2)cc1 [VE-821] + CC(=O)Nc1cccc(-n2c(=O)n(C3CC3)c(=O)c3c(Nc4ccc(I)cc4F)n(C)c(=O)c(C)c32)c1 [Trametinib] (partner 0.02 µM)
How it was run: as §1

Ruxolitinib + Tozasertib = compound: N#CC[C@H](C1CCCC1)n1cc(-c2ncnc3[nH]ccc23)cn1 [Ruxolitinib] + Cc1cc(Nc2cc(N3CCN(C)CC3)nc(Sc3ccc(NC(=O)C4CC4)cc3)n2)n[nH]1 [Tozasertib] (partner 0.1 µM)
How it was run: as §1

Ruxolitinib + Linsitinib = compound: N#CC[C@H](C1CCCC1)n1cc(-c2ncnc3[nH]ccc23)cn1 [Ruxolitinib] + C[C@]1(O)C[C@@H](c2nc(-c3ccc4ccc(-c5ccccc5)nc4c3)c3c(N)nccn32)C1 [Linsitinib] (partner 1 µM)
How it was run: as §1

Cell Line | relative viability (VE-821 + OSI-027; first compound 0.08 µM) | relative viability (VE-821 + OSI-027; first compound 0.253 µM) | relative viability (VE-821 + OSI-027; first compound 0.8 µM) | relative viability (VE-821 + OSI-027; first compound 2.53 µM) | relative viability (VE-821 + OSI-027; first compound 8 µM) | relative viability (VE-821 + Trametinib; first compound 0.08 µM) | relative viability (VE-821 + Trametinib; first compound 0.253 µM) | relative viability (VE-821 + Trametinib; first compound 0.8 µM) | relative viability (VE-821 + Trametinib; first compound 2.53 µM) | relative viability (VE-821 + Trametinib; first compound 8 µM) | relative viability (Ruxolitinib + Tozasertib; first compound 0.08 µM) | relative viability (Ruxolitinib + Tozasertib; first compound 0.253 µM) | relative viability (Ruxolitinib + Tozasertib; first compound 0.8 µM) | relative viability (Ruxolitinib + Tozasertib; first compound 2.53 µM) | relative viability (Ruxolitinib + Tozasertib; first compound 8 µM) | relative viability (Ruxolitinib + Linsitinib; first compound 0.08 µM) | relative viability (Ruxolitinib + Linsitinib; first compound 0.253 µM) | relative viability (Ruxolitinib + Linsitinib; first compound 0.8 µM) | relative viability (Ruxolitinib + Linsitinib; first compound 2.53 µM) | relative viability (Ruxolitinib + Linsitinib; first compound 8 µM)
PC-3 [JPC-3] | 0.89 | 0.724 | 0.887 | 0.829 | 0.749 | 0.727 | 0.744 | 0.701 | 0.826 | 0.763 | 0.77 | 0.894 | 0.862 | 0.824 | 0.859 | 0.882 | 0.973 | 0.973 | 0.963 | 0.872
PC-14 | 1.01 | 0.762 | 0.913 | 0.824 | 0.336 | 0.966 | 0.689 | 0.656 | 0.63 | 0.429 | – | 0.677 | 0.58 | 0.471 | 0.483 | – | 0.959 | 1.04 | 0.794 | 0.69
RERF-LC-KJ | 0.548 | 0.523 | 0.535 | 0.614 | 0.49 | 0.935 | 0.788 | 0.704 | 0.81 | 0.69 | 0.401 | 0.492 | 0.555 | 0.495 | 0.384 | 0.883 | 0.812 | 0.877 | 0.904 | 0.634
SK-LU-1 | 0.316 | 0.316 | 0.312 | 0.268 | 0.193 | 0.495 | 0.53 | 0.387 | 0.547 | 0.291 | 0.363 | 0.328 | 0.412 | 0.372 | 0.338 | 1.16 | 1.19 | 1.27 | 0.974 | 0.945
SK-MES-1 | 0.665 | 0.558 | 0.53 | 0.533 | 0.233 | 0.609 | 0.516 | 0.462 | 0.471 | 0.455 | 1.01 | 0.873 | 0.906 | 0.768 | 0.735 | 1.15 | 1.02 | 1.04 | 0.866 | 0.622
SW 1573 | 0.549 | 0.853 | 0.649 | 0.823 | 0.453 | 0.53 | 0.627 | 0.574 | 0.547 | 0.378 | 0.209 | 0.182 | 0.167 | 0.183 | 0.16 | 0.948 | 0.669 | 0.848 | 0.707 | 0.534

Reference: the supplement of paper PMC10307832
